Reference: ChEMBL document CHEMBL1141729, “Two new cytotoxic compounds from Tapirira guianensis” (J Nat Prod, 1998)
Values after ≈ are worked out from the molar mass of the structure shown.

What was measured:
Format in all cases: functional, cell-based
KB = assay: Cytotoxicity against human KB cells
Col2 = assay: Cytotoxicity against human Col2 cells
Lu1 = assay: Cytotoxicity against human Lu1 cells
[1] = Cytotoxicity against vinblastine-resistant human KBV1 cells in presence of vinblastine; conditions: KB-V1
LNCaP = assay: Cytotoxicity against human LNCAP cells
[2] = Cytotoxicity against vinblastine-resistant human KBV1 cells; conditions: KB-V1
[3] = Cytotoxicity against human BC1 cells

SMILES | IC50 (KB) [µg/mL] | IC50 (Col2) [µg/mL] | IC50 (Lu1) [µg/mL] | IC50 [1] [µg/mL] | IC50 (LNCaP) [µg/mL] | IC50 [2] [µg/mL] | IC50 [3] [µg/mL]
CCCCCC/C=C\CCCCCCCCCc1cc(O)ccc1O | 0.5 (≈ 1.44 µM) | 0.8 (≈ 2.31 µM) | 0.3 (≈ 0.866 µM) | 0.5 | 0.2 (≈ 0.577 µM) | 0.6 (≈ 1.73 µM) | 1.3 (≈ 3.75 µM)
CCCCCC/C=C\CCCCCCCCC[C@]1(O)C=CC(=O)[C@@H](O)C1 | 1.5 (≈ 4.11 µM) | 1.8 (≈ 4.94 µM) | 4.4 (≈ 12.1 µM) | 4.1 | 0.3 (≈ 0.823 µM) | 4.2 (≈ 11.5 µM) | 4.3 (≈ 11.8 µM)
